Measured values published in patent publication EP4512806A1, “MOLECULAR GLUE DEGRADERS AND USES THEREOF” (Mablink Bioscience, priority 2023, dated 2025).
Peptide text beside a SMILES is read from it. * marks the point of attachment. Cbz = O=C(OCc1ccccc1)*

How the values were obtained:
[1] = Passive permeability assessment (PAMPA assay); assay type: in vitro ADME; conditions: in words
Procedure: Stock solutions of compounds of the invention were prepared in dimethyl sulfoxide (DMSO) to a final concentration of 10 mM. Each stock solution was diluted to 50 µM in pH 7.4 Prisma HT buffer (pION) in the presence of 10% MeOH (v/v). 200 µL were added to each well of the donor plate in quintuplicate. […] The acceptor filter plate was carefully placed on top of the donor plate to form a "sandwich." The sandwich was incubated at 25°C for 5 h, at 300 rpm. UV-vis spectra of the solutions in the blank, reference, acceptor, and donor plates were measured using a Tecan Infinite 200 PRO M Nano Plus microplate reader. For each compound, apparent permeability values Papp (10^-6 cm/s) were calculated using the PAMPA Explorer software v.3.6 (pION).

[2] = molecular target: T1, BCRP (Homo sapiens, UniProt Q9UNQ0); assay: BCRP efflux substrate assay (MDCK-BCRP); assay type: in vitro ADME; conditions: 5µM, 60 min, in words
T1 construct: host or cells: MDCK-BCRP
T1 sequence (Q9UNQ0 1-655): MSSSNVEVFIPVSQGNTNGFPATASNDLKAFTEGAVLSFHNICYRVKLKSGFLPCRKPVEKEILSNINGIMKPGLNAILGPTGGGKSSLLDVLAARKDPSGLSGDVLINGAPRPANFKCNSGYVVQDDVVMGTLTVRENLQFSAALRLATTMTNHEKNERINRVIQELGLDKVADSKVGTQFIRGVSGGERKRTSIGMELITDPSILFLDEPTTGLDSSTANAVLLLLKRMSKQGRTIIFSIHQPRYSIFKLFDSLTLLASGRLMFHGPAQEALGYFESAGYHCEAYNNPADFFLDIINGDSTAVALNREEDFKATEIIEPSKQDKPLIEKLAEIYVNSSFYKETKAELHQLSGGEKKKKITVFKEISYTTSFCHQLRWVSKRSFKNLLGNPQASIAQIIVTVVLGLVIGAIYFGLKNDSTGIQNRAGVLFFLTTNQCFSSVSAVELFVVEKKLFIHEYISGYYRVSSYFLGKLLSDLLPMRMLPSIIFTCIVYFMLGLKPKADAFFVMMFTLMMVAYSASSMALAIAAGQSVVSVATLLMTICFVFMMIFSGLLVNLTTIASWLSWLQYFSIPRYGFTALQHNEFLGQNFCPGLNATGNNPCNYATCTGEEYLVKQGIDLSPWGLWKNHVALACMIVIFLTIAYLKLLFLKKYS
Procedure: (§1) MDR1 and BCRP efflux substrate assays were conducted in MDCK-MDR1 and MDCK-BCRP in vitro models (Preadyport™, Solvo Biotech) at Symeres (Nederland). Compound of the invention (donor well concentration of 5µM) were incubated in cell monolayer 24-transwell Preadyport system, using Preadyport recommended pH 7.4 assay buffer (donor and receiver wells). After 60 min of incubation (no shaking), samples are collected and suspended into triple volume of 66% cold acetonitrile. Samples are stored at -20°C until thawed, centrifuged and analyzed by LC-MS. Quinidine was used a positive control for the MDR1 assay, and prazosin was used as a positive control for the BCRP assay. Exatecan was used as a control, known not to be an MDR1 substrate. Residual DMSO content from compounds stock solutions was below 1% (v/v). The assay was performed in duplicate. The quantification of test compounds in donor or receptor compartment is conducted using relative LC/MS peak areas (samples of initial incubation solutions are used as a single point calibrator), without any spiked standard samples. The data is used for estimating apparent permeability (Papp) and calculation of efflux ratio.
BCRP, like MDR1, is a protein of the tumor cell membrane that pumps the anticancer drugs out of cancer cells, thereby rendering the cell drug-resistant. This multidrug-resistant protein is particularly expressed in breast and lung cancers. The efflux ratio B/A reflects the overall ability of a compounds to enter BCRP-expressing tumor cells (equilibrium between ability to passively enter the cell A→B and susceptibility to be pumped out of a tumor B→A).

[3] = molecular target: T2, MDR1 (Homo sapiens, UniProt P08183); assay: MDR1 efflux substrate assay (MDCK-MDR1); assay type: in vitro ADME; conditions: MDCK-MDR1, 5µM, 60 min, in words
T2 construct: host or cells: MDCK-MDR1
T2 sequence (P08183 whole entry): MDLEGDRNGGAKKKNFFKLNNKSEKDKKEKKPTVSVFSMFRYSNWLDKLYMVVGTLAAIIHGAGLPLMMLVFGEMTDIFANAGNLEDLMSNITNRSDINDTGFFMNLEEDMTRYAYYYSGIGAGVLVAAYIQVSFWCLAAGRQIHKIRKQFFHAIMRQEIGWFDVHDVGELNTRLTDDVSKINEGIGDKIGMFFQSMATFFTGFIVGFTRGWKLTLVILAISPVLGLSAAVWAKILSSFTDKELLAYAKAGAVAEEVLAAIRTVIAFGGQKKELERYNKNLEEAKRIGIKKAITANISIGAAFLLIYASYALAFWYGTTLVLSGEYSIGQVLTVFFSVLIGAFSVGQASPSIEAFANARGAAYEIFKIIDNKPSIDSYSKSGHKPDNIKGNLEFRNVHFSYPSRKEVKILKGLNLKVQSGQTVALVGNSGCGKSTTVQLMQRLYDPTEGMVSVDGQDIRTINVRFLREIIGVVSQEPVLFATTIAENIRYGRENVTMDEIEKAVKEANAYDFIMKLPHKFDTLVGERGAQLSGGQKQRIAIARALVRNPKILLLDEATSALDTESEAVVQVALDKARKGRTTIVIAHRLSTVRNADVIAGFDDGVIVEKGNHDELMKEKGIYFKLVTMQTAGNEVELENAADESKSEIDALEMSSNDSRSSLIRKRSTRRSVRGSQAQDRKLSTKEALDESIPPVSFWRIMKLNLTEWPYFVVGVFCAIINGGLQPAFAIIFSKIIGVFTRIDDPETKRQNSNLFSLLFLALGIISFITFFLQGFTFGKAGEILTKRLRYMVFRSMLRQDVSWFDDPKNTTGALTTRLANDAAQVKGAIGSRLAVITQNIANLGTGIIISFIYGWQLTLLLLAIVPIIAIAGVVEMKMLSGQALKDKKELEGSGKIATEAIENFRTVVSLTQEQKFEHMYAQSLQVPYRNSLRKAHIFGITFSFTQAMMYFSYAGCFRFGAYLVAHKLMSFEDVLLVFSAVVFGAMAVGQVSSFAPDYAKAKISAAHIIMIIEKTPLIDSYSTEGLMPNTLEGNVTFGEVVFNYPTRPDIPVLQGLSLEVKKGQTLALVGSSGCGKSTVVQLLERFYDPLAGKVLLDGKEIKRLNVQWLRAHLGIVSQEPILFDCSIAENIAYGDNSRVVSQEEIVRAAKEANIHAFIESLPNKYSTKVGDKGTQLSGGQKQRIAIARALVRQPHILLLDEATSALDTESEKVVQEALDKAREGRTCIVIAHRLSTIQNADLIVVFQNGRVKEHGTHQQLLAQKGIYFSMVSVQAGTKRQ
Procedure: as §1
MDR1 is protein of the tumor cell membrane that pumps the anticancer drugs out of cancer cells, thereby rendering the cell drug-resistant. The Papp (10^-6 cm/s) B (acceptor = basolateral) to A (donor = apical) reflects the susceptibility of a compounds to be pumped out of a tumor and as such a low Papp B→A value is advantageous in the context of oncology. The efflux ratio B/A reflects the overall ability of a compounds to enter MDR1-expressing tumor cells (equilibrium between ability to passively enter the cell A→B and susceptibility to be pumped out of a tumor B→A).

[4] = test system: MDA-MB-231; assay: In vitro cytotoxicity assay (MTT); assay type: cell-based, human; conditions: 6 days incubation
Description: (§2) Human cancer cell lines used in the present project were purchased from either the American Type Culture Collection (ATCC), The Leibniz Institute DSMZ German Collection of Microorganisms and Cell Cultures GmbH (DSMZ) or the European Collection of Authenticated Cell Cultures (ECACC). For use in experiments, cells were cultivated following good and established cell culture practices, following instructions from the original ATCC/DSMZ/ECACC supplier for cell culture media & supplement, cryopreservation, and subculturing procedures. Cells were incubated under a 5% CO2 atmosphere at 37°C for no longer than 2 months.
(§3) In vitro cytotoxicity of compounds of the disclosure was assessed on several cancerous human cell lines. Cells were plated in 96-well plates at an appropriate density depending on the cell line (between 1000 and 10 000 cells/well in 100µL of appropriate culture media) and incubated at 37°C for 24 hours. Serial dilutions of the tested compound previously dissolved in culture media (50µL) were added, and incubation was carried at 37°C out for 6 days. MTT (5mg/mL in PBS, 20µL, Sigma-Aldrich) was added into the wells, and incubation was continued for 1 to 4 hours at 37°C. Culture media was then carefully removed, and well content was homogeneously dissolved with acidified isopropanol. Absorbance values were measured on a microplate reader using a wavelength of 570 nm (with a reference wavelength of 690 nm). The IC50 concentration values compared to untreated control cells were determined using inhibition dose response curve fitting (GraphPad Prism 9). Exatecan mesylate (cat#HY-13631A) and CR8 (CAS# 294646-77-8; cat#HY-18340) were purchased from MedChemExpress (China).

[5] = test system: MDA-MB-453; assay: In vitro cytotoxicity assay (MTT); assay type: cell-based, human; conditions: 6 days incubation
Description: as §2, §3

[6] = test system: NCI-N87; assay: In vitro cytotoxicity assay (MTT); assay type: cell-based, human; conditions: 6 days incubation
Description: as §2, §3

[7] = test system: SKBR-3; assay: In vitro cytotoxicity assay (MTT); assay type: cell-based, human; conditions: 6 days incubation
Description: as §2, §3

[8] = test system: BT-474; assay: In vitro cytotoxicity assay (MTT); assay type: cell-based, human; conditions: 6 days incubation
Description: as §2, §3

[9] = In vivo mice tolerability assessment; conditions: female CD-1 mice, single intravenous 1mg/kg dose, Mean
Procedure: All animal procedures were performed in accordance with the European Union directive 86/609/EEC. Experiments were performed under individual permit and in accredited animal care facilities.
Mouse tolerability experiments were performed with selected compounds of the disclosure. Female CD-1 mice (n=5 mice per group) were treated with a single intravenous 1mg/kg dose of compound. Vehicle was PBS pH 6.0. Mice were carefully monitored for mortality, external clinical findings, weight loss, behavior and apparent signs of toxicity over the course of 21 days.

[10] = test system: JIMT-1; assay: In vitro cytotoxicity assay (MTT); assay type: cell-based, human; conditions: 6 days incubation
Description: as §2, §3

[11] = molecular target: T3, CycK (Homo sapiens, UniProt O75909); assay: CycK protein quantification by Western Blot in JIMT-1 cells; assay type: cell-based; conditions: 2h
T3 construct: endogenous in cells; host or cells: JIMT-1
T3 sequence (O75909 whole entry): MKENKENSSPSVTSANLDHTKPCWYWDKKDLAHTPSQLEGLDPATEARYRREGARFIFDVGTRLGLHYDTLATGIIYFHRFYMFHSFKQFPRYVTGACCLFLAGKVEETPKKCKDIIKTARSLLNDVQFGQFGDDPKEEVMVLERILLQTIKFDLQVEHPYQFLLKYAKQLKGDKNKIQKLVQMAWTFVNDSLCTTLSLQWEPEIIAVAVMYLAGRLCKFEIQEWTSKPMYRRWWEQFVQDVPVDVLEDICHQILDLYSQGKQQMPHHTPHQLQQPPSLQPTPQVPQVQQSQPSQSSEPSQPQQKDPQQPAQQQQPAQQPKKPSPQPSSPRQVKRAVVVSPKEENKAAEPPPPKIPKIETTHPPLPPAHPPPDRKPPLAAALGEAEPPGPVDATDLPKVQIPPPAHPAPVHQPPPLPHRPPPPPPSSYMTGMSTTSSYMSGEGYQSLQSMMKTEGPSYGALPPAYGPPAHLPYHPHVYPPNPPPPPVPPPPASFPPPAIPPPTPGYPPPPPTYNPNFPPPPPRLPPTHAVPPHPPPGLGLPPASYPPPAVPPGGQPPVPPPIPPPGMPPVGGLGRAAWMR
T3 sequence (Q9NYV4 whole entry partner): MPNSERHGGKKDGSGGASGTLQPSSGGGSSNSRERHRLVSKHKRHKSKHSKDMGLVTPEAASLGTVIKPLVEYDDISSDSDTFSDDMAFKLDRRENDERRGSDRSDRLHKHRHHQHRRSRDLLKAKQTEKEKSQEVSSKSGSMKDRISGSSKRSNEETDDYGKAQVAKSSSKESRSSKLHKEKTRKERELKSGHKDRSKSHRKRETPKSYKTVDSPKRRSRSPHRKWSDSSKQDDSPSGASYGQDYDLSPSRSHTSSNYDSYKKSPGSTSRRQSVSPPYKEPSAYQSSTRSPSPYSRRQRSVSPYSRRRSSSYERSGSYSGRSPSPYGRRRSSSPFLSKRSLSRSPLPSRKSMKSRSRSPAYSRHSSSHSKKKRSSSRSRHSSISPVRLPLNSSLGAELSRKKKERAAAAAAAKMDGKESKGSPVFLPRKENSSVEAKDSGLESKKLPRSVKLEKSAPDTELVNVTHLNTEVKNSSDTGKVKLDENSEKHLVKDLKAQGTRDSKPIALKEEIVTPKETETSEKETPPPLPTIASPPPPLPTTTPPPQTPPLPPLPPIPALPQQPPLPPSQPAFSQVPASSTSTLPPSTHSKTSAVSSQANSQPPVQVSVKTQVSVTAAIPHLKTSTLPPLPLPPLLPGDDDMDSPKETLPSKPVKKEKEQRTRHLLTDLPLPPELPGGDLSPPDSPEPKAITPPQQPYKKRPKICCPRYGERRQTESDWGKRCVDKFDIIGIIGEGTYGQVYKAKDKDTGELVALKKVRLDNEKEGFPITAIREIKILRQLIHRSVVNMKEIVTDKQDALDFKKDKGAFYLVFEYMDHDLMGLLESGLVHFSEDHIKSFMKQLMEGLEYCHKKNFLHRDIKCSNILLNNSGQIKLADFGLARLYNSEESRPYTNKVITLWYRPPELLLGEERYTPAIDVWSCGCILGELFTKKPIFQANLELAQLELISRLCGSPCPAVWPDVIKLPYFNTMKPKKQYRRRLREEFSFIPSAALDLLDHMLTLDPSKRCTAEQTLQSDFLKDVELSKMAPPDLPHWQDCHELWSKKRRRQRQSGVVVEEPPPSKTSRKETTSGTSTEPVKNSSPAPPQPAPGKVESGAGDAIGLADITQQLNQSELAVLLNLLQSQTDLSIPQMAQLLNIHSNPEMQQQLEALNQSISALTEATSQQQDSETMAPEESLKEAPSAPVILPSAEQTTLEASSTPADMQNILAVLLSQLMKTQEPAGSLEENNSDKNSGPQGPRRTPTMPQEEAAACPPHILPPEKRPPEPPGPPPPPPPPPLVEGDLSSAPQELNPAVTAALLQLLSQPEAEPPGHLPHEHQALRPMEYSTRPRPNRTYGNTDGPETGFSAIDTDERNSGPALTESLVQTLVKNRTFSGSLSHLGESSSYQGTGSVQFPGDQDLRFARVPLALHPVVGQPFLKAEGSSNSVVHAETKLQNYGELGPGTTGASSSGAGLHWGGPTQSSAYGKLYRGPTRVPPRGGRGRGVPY
T3 sequence (Q16531 whole entry partner): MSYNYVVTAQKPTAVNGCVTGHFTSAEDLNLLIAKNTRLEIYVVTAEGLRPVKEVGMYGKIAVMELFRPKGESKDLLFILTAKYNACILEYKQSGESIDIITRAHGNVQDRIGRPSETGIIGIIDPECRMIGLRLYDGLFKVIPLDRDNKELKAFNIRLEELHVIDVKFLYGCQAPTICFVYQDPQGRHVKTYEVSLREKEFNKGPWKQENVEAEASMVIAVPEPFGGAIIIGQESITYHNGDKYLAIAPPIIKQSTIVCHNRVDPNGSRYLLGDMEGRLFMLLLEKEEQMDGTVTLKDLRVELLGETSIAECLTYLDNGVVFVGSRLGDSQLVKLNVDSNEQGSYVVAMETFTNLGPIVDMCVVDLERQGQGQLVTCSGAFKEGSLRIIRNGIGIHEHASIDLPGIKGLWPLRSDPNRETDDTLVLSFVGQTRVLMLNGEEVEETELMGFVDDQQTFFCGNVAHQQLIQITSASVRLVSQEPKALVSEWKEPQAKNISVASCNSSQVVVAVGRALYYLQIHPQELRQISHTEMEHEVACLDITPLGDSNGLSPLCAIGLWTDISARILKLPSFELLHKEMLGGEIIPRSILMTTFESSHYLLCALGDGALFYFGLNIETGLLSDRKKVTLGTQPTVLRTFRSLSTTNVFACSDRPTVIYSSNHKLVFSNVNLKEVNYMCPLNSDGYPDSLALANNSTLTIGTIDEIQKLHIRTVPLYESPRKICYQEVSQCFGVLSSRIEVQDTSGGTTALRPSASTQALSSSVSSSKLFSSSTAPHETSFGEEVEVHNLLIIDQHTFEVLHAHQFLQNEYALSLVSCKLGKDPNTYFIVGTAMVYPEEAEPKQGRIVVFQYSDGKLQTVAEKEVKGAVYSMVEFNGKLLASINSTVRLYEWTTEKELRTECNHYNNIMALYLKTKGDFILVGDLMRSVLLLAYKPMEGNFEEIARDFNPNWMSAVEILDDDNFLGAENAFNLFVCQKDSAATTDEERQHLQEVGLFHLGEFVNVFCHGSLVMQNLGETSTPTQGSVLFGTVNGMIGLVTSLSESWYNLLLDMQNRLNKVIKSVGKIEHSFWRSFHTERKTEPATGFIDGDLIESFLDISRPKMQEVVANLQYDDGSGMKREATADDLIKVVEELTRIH
Procedure: 1×10^6 JIMT-1 cells were plated in 3mL of DMEM/FBS 90:10 (v/v) in 6-well plates and incubated overnight. Cells were treated with the compound 2384 of the invention with or without the proteasome inhibitor MG-132 (MedChemExpress, Cat HY-13259) for 2h. Cells were harvested, and protein were extracted using complete RIPA buffer (RIPA buffer, 1 mM DTT, 1M NaF, 100 mM sodium orthovanadate, phosphatase inhibitor buffer and protease inhibitors) for 1 hour on ice. Lysate were centrifuged 15min at 12 000g at 4°C. and proteins were mixed with 4x Laemmli Sample Buffer (Bio-Rad), heated at 95 °C for 5 mins and separated by SDS PAGE (PROTEAN TGX Stain-Free Gels, Bio-Rad). Proteins were then transferred onto PVDF membrane (iBlot®2 PVDF stacks, Invitrogen) using the iBlot2 device (Invitrogen) and blocked with TBS buffer (Intercept® Blocking Buffer, LI-COR Biosciences). Primary antibodies were incubated overnight at 4°C and secondary antibodies (IRDye Infrared Dyes from LI-COR Biosciences) 1 hour at room temperature. Used primary antibody were: anti-CycK (cat#A301-939A, Bethyl Laboratories, dil. 1:1000) and anti-β-actin (cat#A5441, Sigma-Aldrich, dil. 1:5000). Membranes were scanned using a c500 Imaging System (Azure Biosystems) and densitometric quantification were performed using imaged software. Protein levels were normalized against β-actin.

**Q.** With `NC[C@H]1CC[C@H](Nc2nc(NCc3ccc(-c4ccccn4)cc3)n3ncc(Br)c3n2)CC1` [Compound 2636] as the molecule, how does the passive permeability potential [1] read?
**A.** moderate

**Q.** What does the source list for `CNCCN(C)c1nc(NCc2ccc(-c3ccccn3)cc2)n2ncc(Br)c2n1` [Compound 2605]?
**A.** BCRP efflux potential [2]: low level; MDR1 efflux potential [3]: low level

**Q.** With `Brc1cnn2c(NCc3ccc(-c4ccccn4)cc3)nc(N[C@H]3CCNC3)nc12` [Compound 2657] as the molecule, how does the IC50 [4] read?
**A.** 0.56 nM

**Q.** And the IC50 [5]?
**A.** 0.77 nM

**Q.** And the IC50 [6]?
**A.** 0.43 nM

**Q.** And the IC50 [7]?
**A.** 0.13 nM

**Q.** What about the IC50 [8] of the same molecule?
**A.** 1.71 nM

**Q.** And the “average weight change (% initial weight)” value ([9]; Study Day 1)?
**A.** 0.0 % initial weight

**Q.** And the “average weight change (% initial weight)” value ([9]; Study Day 2)?
**A.** 1.3 % initial weight

**Q.** And the “average weight change (% initial weight)” value ([9]; Study Day 3)?
**A.** 1.5 % initial weight

**Q.** What about the “average weight change (% initial weight)” value ([9]; Study Day 4) of the same molecule?
**A.** 1.7 % initial weight

**Q.** What about the “average weight change (% initial weight)” value ([9]; Study Day 5) of the same molecule?
**A.** 2.3 % initial weight

**Q.** And the “average weight change (% initial weight)” value ([9]; Study Day 6)?
**A.** 4.2 % initial weight

**Q.** What about the “average weight change (% initial weight)” value ([9]; Study Day 7) of the same molecule?
**A.** 3.3 % initial weight

**Q.** And the “average weight change (% initial weight)” value ([9]; Study Day 8)?
**A.** 4.2 % initial weight

**Q.** What about the “average weight change (% initial weight)” value ([9]; Study Day 9) of the same molecule?
**A.** 4.5 % initial weight

**Q.** And the “average weight change (% initial weight)” value ([9]; Study Day 10)?
**A.** 7.8 % initial weight

**Q.** And the “average weight change (% initial weight)” value ([9]; Study Day 11)?
**A.** 7.7 % initial weight

**Q.** And the “average weight change (% initial weight)” value ([9]; Study Day 12)?
**A.** 8.0 % initial weight

**Q.** And the “average weight change (% initial weight)” value ([9]; Study Day 13)?
**A.** 7.9 % initial weight

**Q.** And the “average weight change (% initial weight)” value ([9]; Study Day 14)?
**A.** 8.0 % initial weight

**Q.** What about the “average weight change (% initial weight)” value ([9]; Study Day 15) of the same molecule?
**A.** 7.9 % initial weight

**Q.** What about the “average weight change (% initial weight)” value ([9]; Study Day 16) of the same molecule?
**A.** 9.4 % initial weight

**Q.** And the “average weight change (% initial weight)” value ([9]; Study Day 17)?
**A.** 9.3 % initial weight

**Q.** What about the “average weight change (% initial weight)” value ([9]; Study Day 18) of the same molecule?
**A.** 9.8 % initial weight

**Q.** And the “average weight change (% initial weight)” value ([9]; Study Day 19)?
**A.** 10.5 % initial weight

**Q.** What about the “average weight change (% initial weight)” value ([9]; Study Day 20) of the same molecule?
**A.** 11.4 % initial weight

**Q.** What about the “average weight change (% initial weight)” value ([9]; Study Day 21) of the same molecule?
**A.** 12.0 % initial weight

**Q.** With `N[C@H]1CCCC[C@@H]1Nc1nc(NCc2ccc(-c3ccccn3)cc2)n2ncc(Br)c2n1` [Compound 2671] as the molecule, how does the passive permeability potential [1] read?
**A.** high

**Q.** For `Brc1cnn2c(Nc3ccc(CN4CCOCC4)cc3)nc(NC3CCNCC3)nc12` [Compound 2554], which IC50 [4] is on record?
**A.** > 100 nM

**Q.** What about the IC50 [10] of the same molecule?
**A.** > 100 nM

**Q.** What about the IC50 [5] of the same molecule?
**A.** > 100 nM

**Q.** What about the IC50 [6] of the same molecule?
**A.** > 100 nM

**Q.** What about the IC50 [7] of the same molecule?
**A.** > 100 nM

**Q.** What about the IC50 [8] of the same molecule?
**A.** > 100 nM

**Q.** With `CN(C)C/C=C/C(=O)Nc1ccc(C(=O)N2CCC[C@@H](Nc3ncc(Cl)c(-c4c[nH]c5ccccc45)n3)C2)cc1` [THZ-531, reference compound] as the molecule, how does the CycK protein content ([11]; 1µM final concentration) read?
**A.** no impact

**Q.** With `CC(C)C[C@@H](C=O)NC(=O)[C@H](CC(C)C)NC(=O)[C@H](CC(C)C)NC(=O)OCc1ccccc1` [MG-132, reference compound] (Cbz-Leu-Leu-Leu-aldehyde) as the molecule, how does the “CycK protein content in combination with proteasome inhibitor” value ([11]; degrader combined with MG-132) read?
**A.** restored the content in cycK protein

**Q.** For `CN(CCN)c1nc(NCc2ccc(-c3ccccn3)cc2)n2ncc(Br)c2n1` [Compound 2600], which BCRP efflux potential [2] is on record?
**A.** low level

**Q.** What about the MDR1 efflux potential [3] of the same molecule?
**A.** low level

**Q.** For `NCCCCNc1nc(NCc2ccc(-c3ccccn3)cc2)n2ncc(Br)c2n1` [Compound 2585], which passive permeability potential [1] is on record?
**A.** none

**Q.** Which BCRP efflux potential [2] does the source give for `N[C@H]1CCN(c2nc(NCc3ccc(-c4ccccn4)cc3)n3ncc(Br)c3n2)C1` [Compound 2655] here?
**A.** low level

**Q.** What about the MDR1 efflux potential [3] of the same molecule?
**A.** low level
